Data reported in US10471010B2, “Liposomal corticosteroids for treatment of inflammatory disorders in humans” (ENCELADUS PHARMACEUTICALS B.V., priority 2011, dated 2019).

How the values were obtained:
[1] = potency of prednisolone set to 1; cited from earlier work
[2] = tested on: rats with adjuvant-induced arthritis; assay: Rat adjuvant-induced arthritis, paw inflammation scores; assay type: in vivo, Lewis rats; conditions: for effect on the course of the disease: single injection, equal dose (10 mg/kg), 10 mg/kg
Protocol: Lewis rats were immunized subcutaneously at the tail base with heat-inactivated Mycobacterium tuberculosis in incomplete Freund's adjuvant. […] Assessment of the disease was performed by visually scoring paw inflammation severity, maximum score 4 per paw, and measuring disease-induced body weight loss. The therapeutic efficacy of liposomal prednisolone phosphate on these variables was compared with equal doses unencapsulated drug. Rats were treated when the average score >6 (at day 14 or 15 after disease induction).

Row | SMILES | potency ratio as compared to prednisolone [1] | average inflammation scores ([2]; 20 mg/kg daily for 7 days, day 15 until day 21, from average 6.5 on day 14) | effect of repeated daily treatment ([2]; repeated daily treatment) | effect on the course of the disease [2] | effect on the course of the disease ([2]; listed as free prednisolone)
1 | C[C@]12C=CC(=O)C=C1CC[C@H]1[C@@H]3C[C@@H](O)[C@](O)(C(=O)CO)[C@@]3(C)C[C@H](O)[C@@]12F [triamcinolone] | 1.25 | – | – | – | –
2 | C[C@]12C=CC(=O)C=C1CC[C@@H]1[C@@H]2[C@@H](O)C[C@@]2(C)[C@H]1CC[C@]2(O)C(=O)COP(=O)(O)O [Unencapsulated prednisolone phosphate, prednisolone phosphate] | – | around 5.0 | short-lasting moderate effect | did not significantly alter the course of the disease | not effective
3 | CC(=O)OCC(=O)[C@@]1(O)CC[C@H]2[C@@H]3CCC4=CC(=O)CC[C@]4(C)[C@@]3(F)[C@@H](O)C[C@@]21C [fludrocortisone acetate] | 3.5 | – | – | – | –
